What was measured:
Assay type in all cases: functional
[1] = Human tumor selectivity was measured as zone unit differential between (H125) lung small cell carcinoma and (CEM) lymphocytic leukemia in disk diffusion soft agar colony formation assay at a concentration of 1 ug/disk
[2] = Murine tumor cell selectivity was measured as zone unit differential between (C38) colon adenocarcinoma and ([…]) murine cell line in disk diffusion soft agar colony formation assay at a concentration of 1 ug/disk
[3] = Murine tumor cell selectivity was measured as zone unit differential between (C38) colon adenocarcinoma and (CFU) normal bone marrow in disk diffusion soft agar colony formation assay at a concentration of 1 ug/disk
[4] = Murine tumor cell selectivity was measured as zone unit differential between ([…]) murine cell line and (CFU) normal bone marrow in disk diffusion soft agar colony formation assay at a concentration of 1 ug/disk
[5] = Human tumor selectivity was measured as zone unit differential between (H116) colon tumor and (CEM) lymphocytic leukemia in disk diffusion soft agar colony formation assay at a concentration of 1 ug/disk

C=CCOC(=O)[C@H]1[C@H]2CC[C@H]3C[C@@]4(CCC=C[C@H](CC)O4)NC(=[N+]32)N[C@@]12CCC[C@@H](C)O2.[Cl-]
Selectivity [1]: 0
Selectivity [2]: 350
Selectivity [3]: 450
Selectivity [4]: 100
Selectivity [5]: 0

Reference: ChEMBL document CHEMBL1147463, “Synthesis and anticancer activity of side chain analogs of the crambescidin alkaloids” (2004)
